# Measurements from patent US8729107B2, “Pyridines for treating injured mammalian nerve tissue” (Purdue Research Foundation, priority 2002, dated 2014).
# Like-named read-outs stand apart in the source and are kept apart here.
# Columns and labels:
# [1] = system: fast potassium channels (IA) in guinea pig DRG cells; experiment: Whole cell patch-clamp recording of voltage-gated potassium currents (Itotal, fast component IA); type: cell-based; conditions: for effect on fast potassium current (initial peak of Itotal): 5 mM in bath solution; for peak (fast activated) potassium current amplitude after treatment: 5 mM in bath, command potential +30 mV
# [2] = system: delayed rectifier current Idr in guinea pig DRG cells; experiment: Whole cell patch-clamp recording of isolated delayed rectifier current; type: cell-based; conditions: depolarization holding potential; data not shown
# [3] = system: paralyzed persons with spinal cord injury; conditions: cited from earlier work
# [4] = system: guinea pigs with compression injury to the mid-thoracic spinal cord; type: in vivo; conditions: for failures to respond: by 4 hours after gavage; for effective dosage producing improvement in the electrophysiological record: gavage; for Mean recovered EP (area beneath recovered EP normalized to pre-injury): gavage at 1 week post injury, Table 1; for tolerability of gavage: oral insertion in sedated guinea pigs
# From the text: “Somatosensory evoked potential testing (SSEP)” is a means of measuring ascending nerve impulse “traffic” in a “whole” animal. […] These volleys of evoked potentials are initiated by electrical stimulation of the tibial nerve of the hind leg of an animal, which induces ascending sensory volleys of nociceptive impulses to the contralateral sensory cortex of the brain in the intact animal. A severe spinal cord injury eliminates the ability of evoked potentials to cross the lesion and thus SSEPs are not recorded at the brain after lesioning. Quantitative evaluation of the recovery of SSEP conduction through the whole animal provides a more relevant indicator of the feasibility of these compounds to be useful in reversing behavioral loss after specific, localized, and standardized CNS injury. To eliminate the possibility that the failure to record SSEPs could be due to other factors, a control recording is carried out using the median nerve of the foreleg. Since this neural circuit is completely intact (that is—“above” the level of the spinal injury) normal SSEPs must be obtained after such “control” stimulation. FIG. 2 is a diagram of this testing protocol and provides examples of normal recordings in intact animals, the elimination of sensory impulses after a mid-thoracic spinal cord injury, and explains these issues in detail, as well as, emphasizing the importance of a median nerve control procedure.
# During live animal testing using guinea pigs, novel pyridine derivatives of the instant invention were administered through a gastric tube to large adult guinea pigs which had previously received a standardized compression injury to their mid-thoracic spinal cords. The ability of these compounds to restore conduction in this second technique was determined by a quantitative evaluation of SSEPs. The following protocols and routes of administration were employed.
# Prior to spinal cord injury, fully adult guinea pigs (Hardy strain, around 400 g) were lightly sedated with an intramuscular injection of Ketamine/Rompum and rendered immobile during the placement of stimulation and recording electrodes as illustrated in FIG. 2. A series of SSEP records were then taken subsequent to both tibial and median nerve stimulation in this normal animal. It should be noted here that all surgical procedures and physiological recordings were carried out on anesthetized animals. All animal studies were carried out under protocols approved by the University Animal Care and Use Committee, under strict adherence to University, State, and Federal guidelines for the use of animals in research.
# Subsequently, a dorsal laminectomy surgical procedure was carried out exposing the dorsal (posterior) region of the mid-thoracic spinal cord within the vertebral column, the tough covering of the spinal cord (the dura) incised and removed, and the cord crushed by a standardized technique (constant displacement compression. Blight A R (1991a), Morphometric analysis of a model of spinal cord injury in guinea pigs, with behavioral evidence of delayed secondary pathology, J Neurol Sci 103:156-171; Borgens R B, Shi R, Bohnert D (2002), Behavioral recovery from spinal cord injury following delayed application of polyethylene glycol, J Exp Biol 205:1-12, both incorporated herein by reference.
# […] However, periodically physiological records were taken to monitor their status—and a final record at around 2 months post injury to confirm the chronic loss of ascending SSEP conduction through the mid-thoracic lesion.
# After 8 weeks had elapsed and a “pre-drug application” electrical record obtained, the guinea pigs were lightly sedated and a test compound was administered directly into the stomach by a gastric tube (compounds were undissolved during introduction to the stomach, however, the gastric tube and any remnants of the compounds were flushed into the stomach by secondary introduction of less than 1 ml of distilled water). […]
# [5] = system: injured guinea pig spinal cord white matter; conditions: for concentration producing recovery of CAP conduction (effective/working concentration): drug added to bathing medium of central chamber; for increase in the amplitude of the recovered CAP: pre-drug recovered CAP normalized to 100%; for CAP amplitude after removal of the drug and wash: FIG. 8 electrical records, after washout; for CAP relative to pre-drug level: at the concentrations studied
compound,measurement,setting,value
"Nc1ccncc1 [4-AP, 4-aminopyridine, reference compound]",effect on fast potassium current (initial peak of Itotal),[1],largely blocked
same,peak (fast activated) potassium current amplitude after treatment,[1],"2,574.91±446.8 pA"
same,inhibition of Idr,[2],did not significantly inhibit
same,side effects at the concentrations required,[3]; human patients,numerous unwanted side effects
same,share of treated population with clinically meaningful recoveries of function,[3]; paralyzed persons,about 30%
same,failures to respond,[4],Two of the ten animals failed to respond
same,effective dosage producing improvement in the electrophysiological record,[4],0.47±0.04 mg/kg
same,Mean recovered EP (area beneath recovered EP normalized to pre-injury),[4],40.0
same,tolerability of gavage,[4],uneventful
same,concentration producing recovery of CAP conduction (effective/working concentration),[5],100 µM
"Nc1ccncc1CO [4-AP-3-MeOH, 4-aminopyridine-3-methanol]",effect on fast potassium current (initial peak of Itotal),[1],inhibit the fast potassium currents
same,peak (fast activated) potassium current amplitude after treatment,[1],"2,434.20±543.4 pA"
same,effect on IA over step voltage commands,[1]; step voltage commands from −50 to 40 mV,suppresses IA
same,inhibition of Idr,[2],did not significantly inhibit
same,increase of CAP conduction (not significant),"[5]; 0.01 μM, stretch-injured cord, mean±SE, n=5",6.44±3.8%
same,increase of CAP conduction,"[5]; 0.1 μM, stretch-injured cord, mean±SE, n=7",12.73±3.2%
same,increase of CAP conduction,"[5]; 1 μM, stretch-injured cord, mean±SE, n=6",11.27±4.2%
same,increase of CAP conduction,"[5]; 10 μM, stretch-injured cord, mean±SE, n=11",13.35±5.9%
same,effect on CAP activation threshold,"[5]; 100 μM, stimulus intensities 1.85 to 6.5 V",does not have a significant effect
same,CAP conduction across stimulus intensities,"[5]; 100 μM, stimulus intensities 1.85 to 6.5 V, data not shown",increased CAP conduction at all stimuli intensity levels
same,increase of CAP conduction,"[5]; 100 μM, stretch-injured cord, mean±SE, n=6",21.51±4.5%
same,increase of CAP conduction (not significant),"[5]; 1 mM, stretch-injured cord, mean±SE, n=5",6.72±8.3%
same,suppression of CAP conduction,"[5]; 10 mM, stretch-injured cord, mean±SE, n=5",18.48±8.1%
same,effect on axonal response to dual or multiple stimuli,[5]; injured spinal cord tissue,does not have a significant effect
"CCOC(=O)Nc1ccncc1 [ethyl carbamate (2), N-(4-Pyridyl)Ethyl Carbamate]",recovery of EP compared to 4-AP,[4]; 1 week post injury,did not meet significance
same,failures to respond,[4],no failures to respond
same,Mean recovered EP (area beneath recovered EP normalized to pre-injury),[4],41.5
same,tolerability of gavage,[4],uneventful
same,indication of toxicity,[5],without any indication of toxicity
same,enhancement of CAP conduction,[5]; 100 uM,enhanced CAP conduction significantly
same,recovery of CAP relative to 4-AP,[5]; 100 uM,slightly lower recovery of CAP than 4-AP
same,increase in the amplitude of the recovered CAP,[5]; 100 uM,18.6±8.7%
same,CAP amplitude after removal of the drug and wash,[5],fallen back to pre-drug levels
same,increase in the amplitude of the CAP in example electrical record,"[5]; FIG. 8 panel A, about 1/2 hour after addition",~20%
same,CAP relative to pre-drug level,[5],increase in CAP above the pre-drug level
same,concentration producing recovery of CAP conduction (effective/working concentration),[5],approximately 100 uM
same,concentration producing recovery of CAP conduction (effective/working concentration),[5]; listed as carbamate (2),100 µM
"COC(=O)Nc1ccncc1 [methyl carbamate (3), N-(4-Pyridyl)Methyl Carbamate]",cortical potential (P1) after administration,"[4]; FIG. 3, 1 hour after gastric tube administration, 1 week post injury",nearly normal cortical potential
same,effective dosage producing improvement in the electrophysiological record,[4],0.37±0.2 mg/kg
same,Mean recovered EP (area beneath recovered EP normalized to pre-injury),[4],78.0
same,tolerability of gavage,[4],uneventful
same,enhancement of CAP conduction,[5]; 100 uM,enhanced CAP conduction significantly
same,increase in the amplitude of the recovered CAP,[5]; 100 uM,30.6±11.7%
same,CAP amplitude after removal of the drug and wash,[5],approximate pre-drug levels
same,concentration producing recovery of CAP conduction (effective/working concentration),[5]; listed as Methyl carbamate (3),approximately 100 uM
same,concentration producing recovery of CAP conduction (effective/working concentration),[5]; listed as carbamate (3),100 µM
"CC(C)(C)OC(=O)Nc1ccncc1 [t-butyl carbamate (1), N-(4-Pyridyl) t-Butyl Carbamate]",recovery of EP compared to 4-AP,[4]; 1 week post injury,significantly enhanced
same,failures to respond,[4],no failures to respond
same,tolerability of gavage,[4],not tolerated
same,indication of toxicity,[5],without any indication of toxicity
same,enhancement of CAP conduction,[5]; 1 uM,enhance CAP conduction significantly
same,CAP relative to pre-drug level,[5],increase in CAP above the pre-drug level
same,concentration producing recovery of CAP conduction (effective/working concentration),[5],1 µM
same,increase in recovery CAP amplitude,"[5]; printed 'at uM', n=5, relative to pre-drug CAP",15.4±3.4%
